Read-outs that look alike come from different tables or passages of the source.
System: 134 cancer cell lines
Assay: Cell viability assay (ATPlite, 72 hours), IC50 on cancer cell line panel

Question: Which results are given for `Cn1cnc2c(F)c(Nc3ccc(Br)cc3Cl)c(C(=O)NOCCO)cc21` [selumetinib]?
Answer: IC50 (Homo sapiens, MOLT-4, read-out: IC50 in cell proliferation assay, MOLT-4 cell line): > 31600 nM; IC50 (Homo sapiens, MV4-11, read-out: IC50 in cell proliferation assay, MV4-11 cell line (FLT3 ITD)): 178 nM; IC50 (Homo sapiens, MeWo, read-out: IC50 in cell proliferation assay, MeWo cell line): 5400 nM; IC50 (Homo sapiens, NCCIT, read-out: IC50 in cell proliferation assay, NCC-IT cell line): 25900 nM; IC50 (Homo sapiens, NCI-H82, read-out: IC50 in cell proliferation assay, cell line NCI-H82): 6840 nM; IC50 (Homo sapiens, NCI-H460, read-out: IC50 in cell proliferation assay, NCI-H460 cell line): 297 nM; IC50 (Homo sapiens, NCI-H661, read-out: IC50 in cell proliferation assay, NCI-H661 cell line): > 31600 nM; IC50 (Homo sapiens, NCI-H716, read-out: IC50 in cell proliferation assay, cell line NCI-H716 (FGFR2-COL14A1)): 197 nM; IC50 (Homo sapiens, NCI-H1650, read-out: IC50 in cell proliferation assay, NCI-H1650 cell line (EGFR exon19del)): > 31600 nM; IC50 (Homo sapiens, NCI-H1975, read-out: IC50 in cell proliferation assay, NCI-H1975 cell line (EGFR p.L858R + p.T790M)): 1920 nM; IC50 (Homo sapiens, NCI-H2228, read-out: IC50 in cell proliferation assay, NCI-H2228 cell line (EML4-ALK)): 294 nM; IC50 (Homo sapiens, OVCAR-3, read-out: IC50 in cell proliferation assay, cell line OVCAR-3): > 31600 nM; IC50 (Homo sapiens, PFSK-1, read-out: IC50 in cell proliferation assay, cell line PFSK-1): > 31600 nM; IC50 (Homo sapiens, RL95-2, read-out: IC50 in cell proliferation assay, cell line RL95-2 (EGFR p.A289V)): 12 nM; IC50 (Homo sapiens, RPMI-7951, read-out: IC50 in cell proliferation assay, cell line RPMI-7951 (BRAF p.V600E)): 143 nM; IC50 (Homo sapiens, RS4-11, read-out: IC50 in cell proliferation assay, cell line RS4;11): 18200 nM; IC50 (Homo sapiens, Rec1, read-out: IC50 in cell proliferation assay, cell line REC-1): > 31600 nM; IC50 (Homo sapiens, SHP77, read-out: IC50 in cell proliferation assay, cell line SHP-77): > 31600 nM; IC50 (Homo sapiens, SK-BR-3, read-out: IC50 in cell proliferation assay, cell line SK-BR-3 (ERBB2 amplification)): > 31600 nM; IC50 (Homo sapiens, SK-N-AS, read-out: IC50 in cell proliferation assay, cell line SK-N-AS): 20 nM; IC50 (Homo sapiens, SK-N-FI, read-out: IC50 in cell proliferation assay, cell line SK-N-FI): 8410 nM; IC50 (Homo sapiens, SK-N-MC, read-out: IC50 in cell proliferation assay, cell line SK-N-MC): > 31600 nM; IC50 (Homo sapiens, SK-N-SH, read-out: IC50 in cell proliferation assay, cell line SK-N-SH (ALK p.F1174L)): 66 nM; IC50 (Homo sapiens, SNU-5, read-out: IC50 in cell proliferation assay, cell line SNU-5 (MET amplification)): 1310 nM; IC50 (Homo sapiens, SNU-16, read-out: IC50 in cell proliferation assay, cell line SNU-16 (FGFR2 amplification)): > 31600 nM; IC50 (Homo sapiens, SNU-C2B, read-out: IC50 in cell proliferation assay, cell line SNU-C2B (EGFR p.R165Q)): 36 nM; IC50 (Homo sapiens, SU-DHL-1, read-out: IC50 in cell proliferation assay, cell line SU-DHL-1 (NPM1-ALK)): 7710 nM; IC50 (Homo sapiens, SU-DHL-6, read-out: IC50 in cell proliferation assay, cell line SU-DHL-6): > 31600 nM; IC50 (Homo sapiens, SUP-T1, read-out: IC50 in cell proliferation assay, cell line SUP-T1): > 31600 nM; IC50 (Homo sapiens, SW48, read-out: IC50 in cell proliferation assay, cell line SW48 (EGFR p.G719S)): 34 nM; IC50 (Homo sapiens, SW480, read-out: IC50 in cell proliferation assay, cell line SW480): 29 nM; IC50 (Homo sapiens, SW626, read-out: IC50 in cell proliferation assay, cell line SW626): 44 nM; IC50 (Homo sapiens, SW780, read-out: IC50 in cell proliferation assay, cell line SW780 (FGFR3-BAIAP2L1)): 447 nM; IC50 (Homo sapiens, SW837, read-out: IC50 in cell proliferation assay, cell line SW837): 220 nM; IC50 (Homo sapiens, SW872, read-out: IC50 in cell proliferation assay, cell line SW872 (BRAF p.V600E)): 25 nM; IC50 (Homo sapiens, SW900, read-out: IC50 in cell proliferation assay, cell line SW900): 35 nM; IC50 (Homo sapiens, SW948, read-out: IC50 in cell proliferation assay, cell line SW948): 62 nM; IC50 (Homo sapiens, SW982, read-out: IC50 in cell proliferation assay, cell line SW982 (BRAF p.V600E)): 972 nM; IC50 (Homo sapiens, SW-620, read-out: IC50 in cell proliferation assay, cell line SW620): 24 nM; IC50 (Homo sapiens, T98G, read-out: IC50 in cell proliferation assay, cell line T98G): > 31600 nM; IC50 (Homo sapiens, TCC-SUP, read-out: IC50 in cell proliferation assay, cell line TCCSUP): > 31600 nM; IC50 (Homo sapiens, THP-1, read-out: IC50 in cell proliferation assay, cell line THP-1): 25 nM; IC50 (Homo sapiens, U2OS, read-out: IC50 in cell proliferation assay, cell line U2OS): 10600 nM; IC50 (Homo sapiens, U-87 MG, read-out: IC50 in cell proliferation assay, cell line U-87MG ATCC): 1090 nM; IC50 (Homo sapiens, U-118-MG, read-out: IC50 in cell proliferation assay, cell line U-118MG): > 31600 nM; IC50 (Homo sapiens, UMUC3, read-out: IC50 in cell proliferation assay, cell line UM-UC-3): 801 nM; IC50 (Hs766T, read-out: IC50 in cell proliferation assay, Hs 766T cell line): 22 nM; IC50 (L-82, read-out: IC50 in cell proliferation assay, L-82 cell line (NPM1-ALK)): 950 nM; IC50 (Rh30, read-out: IC50 in cell proliferation assay, cell line Rh30): > 31600 nM; IC50 (read-out: IC50 in cell proliferation assay, 11-18 cell line (EGFR p.L858R)): > 31600 nM; IC50 (read-out: IC50 in cell proliferation assay, Hs 852.T cell line): 345 nM; IC50 (read-out: IC50 in cell proliferation assay, JAR cell line): > 31600 nM; IC50 (read-out: IC50 in cell proliferation assay, cell line 5637): 8000 nM; IC50 (read-out: IC50 in cell proliferation assay, cell line A-388): > 31600 nM; IC50 (read-out: IC50 in cell proliferation assay, cell line DB): > 31600 nM; IC50 (read-out: IC50 in cell proliferation assay, cell line DEL (NPM1-ALK)): > 31600 nM; IC50 (read-out: IC50 in cell proliferation assay, cell line ES-2 (BRAF p.V600E)): 242 nM; IC50 (read-out: IC50 in cell proliferation assay, cell line PA-1): 556 nM; IC50 (read-out: IC50 in cell proliferation assay, cell line PC-3): > 31600 nM; IC50 (read-out: IC50 in cell proliferation assay, cell line RD): 59 nM; IC50 (read-out: IC50 in cell proliferation assay, cell line RKO (BRAF p.V600E)): 367 nM; IC50 (read-out: IC50 in cell proliferation assay, cell line RL): > 31600 nM; IC50 (read-out: IC50 in cell proliferation assay, cell line RT-4 (FGFR3-TACC3)): 21300 nM; IC50 (read-out: IC50 in cell proliferation assay, cell line SR (NPM1-ALK)): 25500 nM; IC50 (read-out: IC50 in cell proliferation assay, cell line T24): 92 nM; IC50 (read-out: IC50 in cell proliferation assay, cell line TT (RET p.C634W)): > 31600 nM; IC50 (read-out: IC50 in cell proliferation assay, cell line VA-ES-BJ): > 31600 nM

Reference: PMC9516332 (Frontiers in Oncology, 2022)
